Test: xn = mol fraction of the nth substance listed
Conditions: 101 kPa, x2 = 0.0138

CCCC[n+]1ccn(C)c1.N#C[C-](C#N)C#N + O showed a viscosity (293.15 K) of 32.77 mPa·s, a viscosity (298.15 K) of 26.47 mPa·s and a viscosity (303.15 K) of 21.7 mPa·s. For the same molecule, the viscosity (308.15 K) was 18.08 mPa·s, the viscosity (313.15 K) was 15.3 mPa·s and the viscosity (318.15 K) was 13.09 mPa·s. It also gave a viscosity (323.15 K) of 11.32 mPa·s, a viscosity (338.15 K) of 7.748 mPa·s and a viscosity (343.15 K) of 6.933 mPa·s. The viscosity (353.15 K) was 5.658 mPa·s, the viscosity (358.15 K) was 5.155 mPa·s and the viscosity (363.15 K) was 4.718 mPa·s.
